The values that follow come from ChEMBL document CHEMBL1649425, “A-CD estrogens. I. Substituent effects, hormone potency, and receptor subtype selectivity in a new family of flexible estrogenic compounds” (J Med Chem, 2011).

The species entered for data set [1] is Homo sapiens. As to the kind of experiment: Selectivity ratio of relative binding affinity for human ERbeta to relative binding affinity for human ERalpha.
The target in data set [2] is T1, Estrogen receptor (Homo sapiens) (UniProt P03372).
T1 sequence (whole entry): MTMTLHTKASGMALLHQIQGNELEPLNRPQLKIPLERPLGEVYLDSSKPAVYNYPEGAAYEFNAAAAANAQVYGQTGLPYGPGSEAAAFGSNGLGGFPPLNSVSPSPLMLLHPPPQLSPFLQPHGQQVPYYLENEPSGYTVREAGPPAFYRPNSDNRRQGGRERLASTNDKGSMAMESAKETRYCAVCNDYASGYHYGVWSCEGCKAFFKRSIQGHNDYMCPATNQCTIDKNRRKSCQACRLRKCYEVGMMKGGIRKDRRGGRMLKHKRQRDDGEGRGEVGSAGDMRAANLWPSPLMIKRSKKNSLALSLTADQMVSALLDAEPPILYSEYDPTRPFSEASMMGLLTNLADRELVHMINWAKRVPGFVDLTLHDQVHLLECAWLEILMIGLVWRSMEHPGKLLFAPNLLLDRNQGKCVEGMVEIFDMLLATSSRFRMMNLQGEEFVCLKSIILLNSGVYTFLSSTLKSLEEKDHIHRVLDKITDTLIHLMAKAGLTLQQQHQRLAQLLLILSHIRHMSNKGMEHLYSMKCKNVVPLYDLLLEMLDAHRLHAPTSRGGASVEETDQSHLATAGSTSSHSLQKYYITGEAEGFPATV
As to the kind of experiment: Activity at human ERalpha expressed in HEK293 cells assessed as relative transcription activation by estrogen response element-lucifease assay relative to estradiol. Type of data set: cell-based. Set-up: concentration or dose not given beside the values.

For data set [3], the target named is Estrogen receptor beta (Homo sapiens) (UniProt Q92731). As to the kind of experiment: Activity at human ERbeta expressed in HEK293 cells assessed as relative transcription activation by estrogen response element-lucifease assay relative to estradiol. It counts as cell-based. Set-up: concentration or dose not given beside the values.
For data set [4], the species on record is Homo sapiens. In words: Selectivity ratio of relative transcription activation for human ERbeta to relative transcription activation for human ERalpha.
Data set [5] is described as follows: Hepatotoxicity in Sprague-Dawley rat hepatocyte after 2 hrs. To be noted: hepatocytes, read-out: LC50. Type of data set: toxicity, cell-based.

Structures are written as SMILES.

Estrogen receptor beta (Homo sapiens), sequence (Q92731 whole entry): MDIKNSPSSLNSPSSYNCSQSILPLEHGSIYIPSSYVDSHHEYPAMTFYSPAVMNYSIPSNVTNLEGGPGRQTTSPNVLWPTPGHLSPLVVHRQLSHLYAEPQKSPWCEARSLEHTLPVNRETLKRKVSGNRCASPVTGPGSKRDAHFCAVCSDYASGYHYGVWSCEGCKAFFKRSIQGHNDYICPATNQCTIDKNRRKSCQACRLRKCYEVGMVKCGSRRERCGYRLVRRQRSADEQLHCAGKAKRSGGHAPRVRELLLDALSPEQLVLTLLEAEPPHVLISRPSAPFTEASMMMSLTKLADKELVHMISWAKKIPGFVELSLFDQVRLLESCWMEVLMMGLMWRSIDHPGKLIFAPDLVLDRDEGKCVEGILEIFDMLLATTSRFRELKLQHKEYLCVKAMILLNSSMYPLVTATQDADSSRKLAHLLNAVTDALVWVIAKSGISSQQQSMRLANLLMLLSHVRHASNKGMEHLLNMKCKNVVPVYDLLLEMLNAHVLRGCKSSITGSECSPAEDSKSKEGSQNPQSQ

In the case of `C[C@]12CC[C@H](c3cc(F)c(O)c(F)c3)C[C@H]1CC[C@@H]2O`, the Ratio in data set [1] stood at 6.9.

`C[C@]12CC[C@H](c3ccc(O)cc3Cl)C[C@H]1CC[C@@H]2O`: the Activity in data set [2] was found to be 90%; in data set [3] it was 189%.

On to `C[C@]12CC[C@H](c3ccc(O)cc3)C[C@H]1CC[C@@H]2O`, for which the Ratio in data set [1] was 14.6; in data set [4], 39. Moreover, the Activity in data set [2] worked out at 4.2%; in data set [3] it was 164%. Also, the CC50 at 2 h in data set [5] is 320 µM.

For `C#C[C@]1(O)CC[C@@H]2C[C@@H](c3ccc(O)cc3)CC[C@@]21C`, the Ratio in data set [1] was 1.3. Also, the Activity in data set [2] is -16.9%; in data set [3], 35.9%.

With `C[C@]12CC[C@H](c3ccc(O)cc3F)C[C@H]1CC[C@@H]2O`, the Ratio in data set [1] was 5; in data set [4] it was 3.6. Moreover, the Activity turned out to be 44.3% in data set [2] and 158% in data set [3]. The CC50 at 2 h in data set [5] came to 250 µM.

`C[C@]12CCC(c3ccc(O)cc3Cl)=C[C@H]1CC[C@@H]2O`: the values for the Ratio in data set [1] and in data set [4] were 1.7 and 1.3, respectively. In addition, the results for the Activity in data set [2] and in data set [3] were 98.6% and 127%, respectively.

With `C[C@]12CC[C@H](c3cc(Cl)c(O)c(Cl)c3)C[C@H]1CC[C@@H]2O`, the Ratio in data set [1] amounted to 0.5. Moreover, the Activity in data set [2] and in data set [3] was 0% each time.

For `C[C@]12CC[C@H](c3cc(F)c(O)cc3F)C[C@H]1CC[C@@H]2O`, in data set [1], the Ratio is 8.7.

Consider `C[C@]12CC[C@@H](c3ccc(O)cc3)C[C@H]1CC[C@@H]2O`, for which the CC50 at 2 h in data set [5] was found to be 300 µM.

Consider `Cc1c(O)ccc([C@H]2CC[C@@]3(C)[C@H](CC[C@@H]3O)C2)c1C`, for which the Ratio in data set [1] is 2.8.

For the compound `Cc1c(O)ccc([C@H]2CC[C@@]3(C)[C@H](CC[C@@H]3O)C2)c1F`, in data set [1], the Ratio was found to be 1.

Regarding `Cc1cc(O)ccc1[C@H]1CC[C@@]2(C)[C@H](CC[C@@H]2O)C1`, the Ratio in data set [1] amounted to 11.9. Further, the Activity in data set [2] was -9.7%; in data set [3], 49.2%.

As to `C[C@]12CC[C@H](c3ccc(O)c(F)c3F)C[C@H]1CC[C@@H]2O`, the Ratio amounted to 9.3 in data set [1] and 8.3 in data set [4]. Also, the figures for the Activity in data set [2] and in data set [3] were 18.3% and 151%, respectively. In data set [5], the CC50 at 2 h is 155 µM.

On to `C[C@]12CC[C@H](c3ccc(O)cc3)C[C@H]1CCC2=O`, for which the Ratio in data set [1] was determined as 14.

`C[C@]12CC[C@H](c3cc(F)c(O)c(F)c3F)C[C@H]1CC[C@@H]2O`: the Ratio is 9.3 in data set [1] and 7.9 in data set [4]. In addition, the Activity in data set [2] is 12.8%; in data set [3] it was 95.4%. Besides, the CC50 at 2 h in data set [5] is greater than 600 µM.

With `C[C@]12CC[C@@H]3c4ccc(O)cc4CC[C@H]3[C@@H]1CC[C@@H]2O` [ESTRADIOL], the CC50 at 2 h in data set [5] turned out to be 400 µM.

In the case of `C[C@]12CC[C@H](c3ccc(O)c(F)c3)C[C@H]1CC[C@@H]2O`, the Ratio in data set [1] came out at 8.3. Moreover, the values for the Activity in data set [2] and in data set [3] were -9% and 196%, respectively.

Turning to `C[C@]12CC=C(c3ccc(O)cc3Cl)C[C@H]1CC[C@@H]2O`, the figures for the Ratio in data set [1] and in data set [4] were 2.3 and 1, respectively. Also, the Activity in data set [2] was found to be 115%; in data set [3] it was 117%.
